# From patent publication US20060293307A1, “Oxazolidinone derivatives as antimicrobials” (priority 2002, published 2006)
# Where two headings read alike, the source gives them in different places.
# What was measured:
# S. aureus ATCC 25923 = experiment: MIC, agar incorporation method; format: cell-based, Staphylococcus aureus
# S. aureus ATCC29213 = experiment: MIC, agar incorporation method; format: cell-based, Staphylococcus aureus
# S. aureus (MRSA) ST450 = experiment: MIC, agar incorporation method; format: cell-based, Staphylococcus aureus
# (MRSA) 562 = experiment: MIC, agar incorporation method; format: cell-based, Staphylococcus aureus
# S. aureus (Smith 49951) = experiment: MIC, agar incorporation method; format: cell-based, Staphylococcus aureus
# [1] = test system: S. epidermidis ATCC 12228; experiment: MIC, agar incorporation method; format: cell-based, Staphylococcus epidermidis
# S. epidermidis 823 = experiment: MIC, agar incorporation method; format: cell-based, Staphylococcus epidermidis
# [2] = test system: S. epidermidis (MRSE)32965; experiment: MIC, agar incorporation method; format: cell-based, Staphylococcus epidermidis
# S. epidermidis 358 = experiment: MIC, agar incorporation method; format: cell-based, Staphylococcus epidermidis
# S. haemo ATCC 29970 = experiment: MIC, agar incorporation method; format: cell-based
# S. warnerii ST360 = experiment: MIC, agar incorporation method; format: cell-based
# E. faecalis 29212 = experiment: MIC, agar incorporation method; format: cell-based
# E. faecium 6A (VRE) = experiment: MIC, agar incorporation method; format: cell-based, Enterococcus faecium
# E. coli 25922 = experiment: MIC, agar incorporation method; format: cell-based
# Acinetobacter 9956 = experiment: MIC, agar incorporation method; format: cell-based
# S. pneumoniae AB-3 = experiment: MIC, agar incorporation method; format: cell-based, Streptococcus pneumoniae
# S. pneumoniae CS1221 = experiment: MIC, agar incorporation method; format: cell-based, Streptococcus pneumoniae
# S. pneumoniae AB 31 = experiment: MIC, agar incorporation method; format: cell-based, Streptococcus pneumoniae
# S. pneumoniae AB 14 = experiment: MIC, agar incorporation method; format: cell-based, Streptococcus pneumoniae
# S. pneumoniae AB 17 = experiment: MIC, agar incorporation method; format: cell-based, Streptococcus pneumoniae
# S. pneumoniae AB 22 = experiment: MIC, agar incorporation method; format: cell-based, Streptococcus pneumoniae
# S. pneumoniae CS 1687 = experiment: MIC, agar incorporation method; format: cell-based, Streptococcus pneumoniae
# S. pneumoniae ATCC 6303 = experiment: MIC, agar incorporation method; format: cell-based, Streptococcus pneumoniae
# S. pyogenes 25147 = experiment: MIC, agar incorporation method; format: cell-based, Streptococcus pyogenes
# Moraxella M1 = experiment: MIC, agar incorporation method; format: cell-based
# H. influenzae ATCC 49247 = experiment: MIC against Haemophilus strains; format: cell-based
# H. influenzae R = experiment: MIC against Haemophilus strains; format: cell-based
# H. influenzae 474 = experiment: MIC against Haemophilus strains; format: cell-based
compound,measurement,setting,value
"CC(=O)NC[C@H]1CN(c2ccc(N3CCN(c4cc(C(OC(C)=O)OC(C)=O)sc4[N+](=O)[O-])CC3)c(F)c2)C(=O)O1 [Compound No. 5, (S)—N-[[3-[3-Fluoro-4-[4-{3-thienyl(2-nitro)-5-acetyloxy}methylacetate]-1-piperazinyl]phenyl]-2-oxo-5-oxazolidinyl]acetamide]",MIC,"S. aureus ATCC 25923; S. No. 1, organism cell empty",0.5 µg/mL
same,MIC,"S. aureus ATCC29213; S. No. 2, S. aureus ATCC29213",0.25 µg/mL
same,MIC,"S. aureus (MRSA) ST450; S. No. 6, S. aureus (MRSA) ST450",1 µg/mL
same,MIC,"(MRSA) 562; S. No. 8, (MRSA) 562",0.25 µg/mL
same,MIC,"S. aureus (Smith 49951); S. No. 9, S. aureus (Smith 49951)",0.25 µg/mL
same,MIC,"[1]; S. No. 10, S. epidermidis ATCC 12228",<0.06 µg/mL
same,MIC,"S. epidermidis 823; S. No. 12, S. epidermidis 823",<0.06 µg/mL
same,MIC,"[2]; S. No. 13, S. epidermidis (MRSE)32965",<0.06 µg/mL
same,MIC,"S. epidermidis 358; S. No. 14, S. epidermidis 358",<0.06 µg/mL
same,MIC,"S. haemo ATCC 29970; S. No. 15, S. haemo ATCC 29970",<0.06 µg/mL
same,MIC,"S. warnerii ST360; S. No. 16, S. warnerii ST360",0.25 µg/mL
same,MIC,"E. faecalis 29212; S. No. 17, E. faecalis 29212",2 µg/mL
same,MIC,"E. faecium 6A (VRE); S. No. 21, E. faecium 6A (VRE)",2 µg/mL
same,MIC,"E. coli 25922; S. No. 25, E. coli 25922",>8 µg/mL
same,MIC,"Acinetobacter 9956; S. No. 30, Acinetobacter 9956",>8 µg/mL
same,MIC,"S. pneumoniae AB-3; S. No. 32, S. pneumoniae AB-3",0.5 µg/mL
same,MIC,"S. pneumoniae CS1221; S. No. 34, S. pneumoniae CS1221",0.5 µg/mL
same,MIC,"S. pneumoniae AB 31; S. No. 36, S. pneumoniae AB 31",0.5 µg/mL
same,MIC,"S. pneumoniae AB 14; S. No. 37, S. pneumoniae AB 14",0.5 µg/mL
same,MIC,"S. pneumoniae AB 17; S. No. 40, S. pneumoniae AB 17",0.5 µg/mL
same,MIC,"S. pneumoniae AB 22; S. No. 42, S. pneumoniae AB 22",0.5 µg/mL
same,MIC,"S. pneumoniae CS 1687; S. No. 44, S. pneumoniae CS 1687",0.5 µg/mL
same,MIC,"S. pneumoniae ATCC 6303; S. No. 50, S. pneumoniae ATCC 6303",0.5 µg/mL
same,MIC,"S. pyogenes 25147; S. No. 52, S. pyogenes 25147",0.5 µg/mL
same,MIC,"Moraxella M1; S. No. 58, Moraxella M1",4 µg/mL
same,MIC,"H. influenzae ATCC 49247; s. No. 2, H. influenzae ATCC 49247",>16 µg/mL
same,MIC,"H. influenzae R; s. No. 4, H. influenzae R",16 µg/mL
same,MIC,"H. influenzae 474; s. No. 11, H. influenzae 474",>16 µg/mL
"O=C(NC[C@H]1CN(c2ccc(N3CCN(c4ccc([N+](=O)[O-])s4)CC3)c(F)c2)C(=O)O1)C(F)F [Compound No. 8, (S)—N-[[3-[3-Fluoro-4-[4-(5-nitro-2-thienyl)-1-piperazinyl]phenyl]-2-oxo-5-oxazolidinyl]methyl]difluoroacetamide]",MIC,"S. aureus ATCC 25923; Staphylococcus aureus, ATCC25923",2 µg/mL
same,MIC,"S. aureus ATCC29213; Staphylococcus aureus, ATCC29213",2 µg/mL
same,MIC,"S. aureus (MRSA) ST450; Staphylococcus aureus, MRSA",2 µg/mL
same,MIC,"(MRSA) 562; Staphylococcus aureus, MRSA",2 µg/mL
same,MIC,S. aureus (Smith 49951); Staphylococcus aureus,1 µg/mL
same,MIC,"[1]; Staphylococcus epidermidis, ATCC12228",0.125 µg/mL
same,MIC,"S. epidermidis 823; Staphylococcus epidermidis, 823",0.25 µg/mL
same,MIC,"[2]; Staphylococcus epidermidis, MRSE",0.25 µg/mL
same,MIC,"S. epidermidis 358; Staphylococcus epidermidis, 358",0.25 µg/mL
same,MIC,S. haemo ATCC 29970,0.25 µg/mL
same,MIC,S. warnerii ST360,0.25 µg/mL
same,MIC,"E. faecalis 29212; Enterococcus faecalis, 29212",0.25 µg/mL
same,MIC,"E. faecium 6A (VRE); Enterococcus faecium, VRE",1 µg/mL
same,MIC,"E. coli 25922; Escherichia coli, 25922",> 8 µg/mL
same,MIC,"Acinetobacter 9956; Acinetobacter, 9956",8 µg/mL
same,MIC,"S. pneumoniae AB-3; Streptococcus pneumoniae, AB3",0.125 µg/mL
same,MIC,"S. pneumoniae CS1221; Streptococcus pneumoniae, CS1221",0.125 µg/mL
same,MIC,"S. pneumoniae AB 31; Streptococcus pneumoniae, AB31",0.25 µg/mL
same,MIC,"S. pneumoniae AB 14; Streptococcus pneumoniae, AB14",0.25 µg/mL
same,MIC,"S. pneumoniae AB 17; Streptococcus pneumoniae, AB17",0.25 µg/mL
same,MIC,"S. pneumoniae AB 22; Streptococcus pneumoniae, AB22",0.25 µg/mL
same,MIC,"S. pneumoniae CS 1687; Streptococcus pneumoniae, CS1687",0.25 µg/mL
same,MIC,"S. pneumoniae ATCC 6303; Streptococcus pneumoniae, ATCC6303",0.25 µg/mL
same,MIC,"S. pyogenes 25147; Streptococcus pyogenes, 25147",0.25 µg/mL
same,MIC,"Moraxella M1; Moraxella, M1",1 µg/mL
same,MIC,"H. influenzae ATCC 49247; Haemophilus influenzae, ATCC49247",> 16 µg/mL
same,MIC,H. influenzae R; Haemophilus influenzae,> 16 µg/mL
same,MIC,"H. influenzae 474; Haemophilus influenzae, 474",> 16 µg/mL
